Measured values reported in publication PMC8416056, “Aspulvinones Suppress Postprandial Hyperglycemia as Potent α-Glucosidase Inhibitors From Aspergillus terreus ASM-1” (Frontiers in Chemistry, 2021).
Like-named read-outs stand apart in the source and are kept apart here.

Columns and labels:
α-glucosidase [1] = settings: ref Dewi et al., 2014; cited from earlier work
[2] = target: T1, α-Glucosidase (EC:3.2.1.20, MAL12) (Saccharomyces cerevisiae, UniProt P53341); assay: biochemical
T1 construct: purchased
Procedure: α-Glucosidase (EC:3.2.1.20, MAL12) from Saccharomyces cerevisiae was dissolved in 0.1 mol/L PBS solutions with a pH of 6.8, and diluted to be a 1.0 U/ml solution. The substrate p-nitrophenyl-[…] (pNPG) was dissolved in PBS to be a 1 mM solution. […] The absorbance of p-nitrophenol was monitored at 405 nm. […] The negative control was performed by adding PBS instead of α-glucosidase, the blank was prepared by adding solvent without tested compounds. The inhibition rate was calculated as Eq. 1: IR% =[(Ac-As)/Ac] × 100% (1) where Ac represents the absorbance of control without sample solution, and As denotes the absorbance of sample.

α-glucosidase [3] = target: T2, α-glucosidase (Saccharomyces cerevisiae, UniProt P53341); assay: Enzymatic kinetics of α-glucosidase (Lineweaver–Burk, Dixon and secondary plots); assay type: biochemical; settings: for Inhibition mode: Lineweaver–Burk plots; for KIS: inhibitor binding with enzyme-substrate complex, vertical intercept (1/Vm) versus inhibitor concentration
T2 construct: purchased
Procedure: pNPG with a concentration range of 100–4,000 μM and α-glucosidase were incubated with different concentrations of inhibitor for 10 min, respectively. 20 μl of 1.0 U/ml enzyme solutions were first mixed with 10 μl of different concentrations of inhibitors, then 50 μl PBS solutions were added, and the mixed solutions were incubated at 37°C for 10 min. Subsequently, 20 μl of pNPG solutions (1.25, 2.5, 5, 10 and 20 mM) were added, and the mixed solutions were further incubated at 37°C for 25 min, the absorbance of reaction solution was measured at 405 nm every 3 min. The kinetic parameters, Michaelis–Menten (Km) and maximum velocity (Vmax), were found using Lineweaver–Burk plots to check the mode of α-glucosidase inhibition for compounds 1 and 4. The dissociation constants between inhibitor and enzyme (Ki) were calculated from Dixon plots. Two inhibition constants, KI or KIS, for inhibitor binding with either free or enzyme-substrate complex, were calculated from secondary plots of the slopes of the straight lines ([…]) or vertical intercept (1/Vmax) verse the concentration of inhibitors, respectively ([Jenis et al., 2019]).

α-glucosidase [4] = target: T2, α-glucosidase; assay: Fluorescence quenching analysis; assay type: binding; settings: for Ksv: quenching constant; for Kq: quenching rate constant, same cell as Ksv; for ∆S: van't Hoff, from 20, 31 and 37 °C (one value per inhibitor, repeated in the grid)
Procedure: α-Glucosidase (1 μM) was mixed with different concentrations of inhibitors (0–15 μM) at 20, 31, and 37°C, respectively, and the fluorescence spectra of mixed solutions were determined after equilibration for 5 min at an excitation wavelength of 250 nm. Both the excitation and emission slits were set at 10 nm. The quenching rate constant (Kq), binding constant (Ka), the number of the binding sites (n), and thermodynamic parameters enthalpy change (ΔH) and entropy change (ΔS) were calculated according to the Stern-Volmer Eq. 2 and the van’t Hoff Eqs 3–5, which were listed as follows ([Xu et al., 2019]): F0/F = 1 + Ksv[Q] = 1 + Kqτ0[Q] (2) log((F0-F)/F) = logKa+ nlogQ (3) lnKa= (-1/T(ΔH/R)) + ΔS/R (4) ΔG = ΔH-TΔS (5) Where F0 and F represent the fluorescence intensities in the absence or presence of inhibitor, [Q] denote the concentration of inhibitor, τ0 is the constant of the lifetime of fluorophore (10^–8 s) and R is the gas constant of 8.31 J/(mol × K).

α-glucosidase [5] = target: T2, α-glucosidase; assay: Circular dichroism spectroscopy of α-glucosidase with inhibitor; assay type: binding; design: dose or concentration left out as unconfirmed; settings: after the addition of (molar ratios 20:1 and 40:1), 20°C
Procedure: The CD measurements were performed in a wavelength range of 190–250 nm at a speed of 60 nm/min. All measurements were carried out at 20°C using 1.0 mm path length quartz cuvette and sodium phosphate buffer (pH 6.8) was considered as a blank. […] All the results were expressed as ellipticity in mill degrees.

female C57BL/6J mice [6] = assay: Oral sucrose tolerance test; assay type: in vivo; settings: sucrose 2 g/kg BW; for decrease of the AUC (blood glucose, 0–120 min): versus negative control
Procedure: (§1) Female C57BL/6J mice, 6 weeks old, weighting 16–20 g, were obtained from the Skbex Biotechenology Company Limited (Henan, China). The animals were housed in Experimental Animal Center of Zhoukou Normal University under 12 h light-dark cycle at controlled temperature (22 ± 1°C), and provided with a standard pellet diet and water ad libitum. The mice were adapted to diet and general conditions of vivarium for 1 week before the experiment. After an 16 h fasting, the mice were divided into three groups randomly (eight mice each group). […] Mice were fasted 16 h and then intragastrically (i.g.) administrated the inhibitors, 15 min later, 2 g/kg BW of sucrose or 2 g/kg BW of maltose solution was given i.g. to the animals. Blood samples were taken from the tail vein at 0, 30, 60, and 120 min after sucrose or maltose loading, and blood glucose was measured with Accu-Chek Active glucometer (Roche, Germany). Area under the curve (AUC) over 0–120 min was calculated by the trapezoidal method. All animals were cared under the frame of the China Council on Animal Care and all procedures were approved by the Health Sciences Animal Welfare Committee of Zhoukou Normal University.

female C57BL/6J mice [7] = settings: 25 mg/kg BW i.g.
Procedure: as §1, with “Area under the curve (AUC) over 0–120 min was calculated by the trapezoidal method.” left out

[8] = sample concentration which led to 50% enzyme activity loss, pNPG substrate, pH 6.8, 37°C, read-out: IC50
[9] = inhibition constant, from Dixon plots
[10] = inhibitor binding with free enzyme, slope (Km/Vm) versus inhibitor concentration

T2 sequence (P53341 whole entry): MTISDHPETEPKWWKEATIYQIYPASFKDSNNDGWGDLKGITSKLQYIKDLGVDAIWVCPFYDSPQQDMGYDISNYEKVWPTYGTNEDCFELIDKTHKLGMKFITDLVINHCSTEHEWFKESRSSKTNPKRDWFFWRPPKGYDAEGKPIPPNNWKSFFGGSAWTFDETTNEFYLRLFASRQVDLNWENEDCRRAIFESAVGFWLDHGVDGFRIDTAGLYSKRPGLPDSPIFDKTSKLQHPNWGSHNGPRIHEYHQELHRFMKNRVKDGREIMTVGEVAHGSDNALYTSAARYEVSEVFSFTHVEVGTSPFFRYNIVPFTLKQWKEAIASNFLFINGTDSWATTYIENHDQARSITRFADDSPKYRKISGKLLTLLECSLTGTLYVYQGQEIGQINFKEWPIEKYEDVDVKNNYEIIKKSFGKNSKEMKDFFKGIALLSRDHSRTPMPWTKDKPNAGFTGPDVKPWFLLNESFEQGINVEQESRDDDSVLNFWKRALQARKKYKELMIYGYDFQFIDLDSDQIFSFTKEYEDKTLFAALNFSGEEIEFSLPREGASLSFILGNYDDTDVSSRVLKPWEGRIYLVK
T1 sequence (P53341 whole entry): as above

SMILES: O=C1O/C(=C\c2ccc(O)cc2)C(O)=C1c1ccc(O)cc1 [Aspulvinone E]
- IC50 (α-glucosidase [1]): 2.7 µM

SMILES: CC(C)=CCc1cc(/C=C2\OC(=O)C(c3ccc(O)c(CC=C(C)C)c3)=C2O)ccc1O [Compound 4, aspulvinone H]
- IC50 [2, 8]: 4.6 ± 1.3 µM
- Inhibition mode (α-glucosidase [3]): mixed-type
- Ki (α-glucosidase [3]; [9]): 6.58 µM
- KIS (α-glucosidase [3]): 6.62 µM
- Ki (α-glucosidase [3]; [10]): 4.7 µM
- ∆G (α-glucosidase [4]; 31 °C): -2.99 kcal/mol
- ∆G (α-glucosidase [4]; 37 °C): -2.37 kcal/mol
- Kd (α-glucosidase [4]; Ka, binding constant, 20 °C): 34.5 µM
- Kd (α-glucosidase [4]; Ka, binding constant, 31 °C): 12.7 µM
- Kd (α-glucosidase [4]; Ka, binding constant, 37 °C): 4.31 µM
- Kd (α-glucosidase [4]; binding constants (Ka), order of magnitude, at the three temperatures): ~100 µM
- Ksv (α-glucosidase [4]; 20 °C): 56900 L/mol
- Ksv (α-glucosidase [4]; 31 °C): 55300 L/mol
- Ksv (α-glucosidase [4]; 37 °C): 60200 L/mol
- Kq (α-glucosidase [4]; 20 °C): 5.69e+12 M⁻¹ s⁻¹
- Kq (α-glucosidase [4]; 31 °C): 5.53e+12 M⁻¹ s⁻¹
- Kq (α-glucosidase [4]; 37 °C): 6.02e+12 M⁻¹ s⁻¹
- ∆S (α-glucosidase [4]): 240.1 J/mol/K
- change of α-glucosidase CD spectrum (negative peaks at 209 and 222 nm) (α-glucosidase [5]): loss of the α-helix structure
- blood glucose rise at 30 and 60 min (female C57BL/6J mice [6]; 25 mg/kg BW i.g., compared to negative control group): significantly suppressed
- decrease of the AUC (blood glucose, 0–120 min) (female C57BL/6J mice [6]; 25 mg/kg BW i.g.): 13.2%
- postprandial blood glucose peak (female C57BL/6J mice [7]; Figure 6C (maltose), versus the negative control group): significant decrease
- reduction of the AUC for postprandial plasma glucose in 2 h (female C57BL/6J mice [7]; Figure 6D (maltose 2 g/kg BW), text prints 'sucrose tolerance test'): 19.7%

SMILES: C[C@H]1O[C@H](O[C@H]2[C@H](O)[C@@H](O)[C@@H](O[C@H]3[C@H](O)[C@@H](O)C(O)O[C@@H]3CO)O[C@@H]2CO)[C@H](O)[C@@H](O)[C@@H]1N[C@H]1C=C(CO)[C@@H](O)[C@H](O)[C@H]1O (stereo partly shown) [Acarbose, reference compound]
- decrease of the AUC (blood glucose, 0–120 min) (female C57BL/6J mice [6]; 50 mg/kg BW i.g.): 11.8%

SMILES: CC(C)=CCc1cc(/C=C2\OC(=O)C(c3cc(CC=C(C)C)c(O)c(CC=C(C)C)c3)=C2O)ccc1O [Compound 6, aspulvinone R]
- IC50 [2]: 10.8 ± 2.3 µM

SMILES: CC1(C)CCc2cc(C3=C(O)C(=Cc4ccc5c(c4)CC(C(C)(C)O)O5)OC3=O)ccc2O1 (stereo not shown) [Compound 3, Aspulvinone X]
- IC50 [2]: 38.6 ± 5.2 µM

SMILES: CC(C)=CCc1cc(C2=C(O)C(=Cc3ccc4c(c3)CC(C(C)(C)O)O4)OC2=O)ccc1O (stereo not shown) [Compound 2, Aspulvinone W]
- IC50 [2]: 32 ± 5.8 µM

SMILES: CC(C)(O)[C@H]1Cc2cc(/C=C3\OC(=O)C(c4ccc5c(c4)C[C@H](C(C)(C)O)O5)=C3O)ccc2O1 [Compound 5, aspulvinone J-CR]
- IC50 [2]: 44.3 ± 8.9 µM

SMILES: O=C1O/C(=C/c2ccc(O)cc2)C(O)=C1c1ccc(O)cc1 [isoaspulvinone E]
- IC50 (α-glucosidase [1]): 8.92 µM

SMILES: CC(C)=CCc1cc(/C=C2\OC(=O)C(c3cc4c(c(CC=C(C)C)c3)OC(C)(C)C=C4)=C2O)ccc1O [Compound 1, Aspulvinone V]
- IC50 [2, 8]: 2.2 ± 0.4 µM
- Inhibition mode (α-glucosidase [3]): mixed-type
- Ki (α-glucosidase [3]; [9]): 6.6 µM
- KIS (α-glucosidase [3]): 8.23 µM
- Ki (α-glucosidase [3]; [10]): 3.15 µM
- ∆G (α-glucosidase [4]; 31 °C): -3.32 kcal/mol
- ∆G (α-glucosidase [4]; 37 °C): -2.94 kcal/mol
- binding constants (Ka), order of magnitude (α-glucosidase [4]; at the three temperatures): ~10^5 L/mol
- Kd (α-glucosidase [4]; binding constant, 20 °C, read-out: Ka (converted)): 9.09 µM
- Kd (α-glucosidase [4]; binding constant, 31 °C, read-out: Ka (converted)): 3.27 µM
- Kd (α-glucosidase [4]; binding constant, 37 °C, read-out: Ka (converted)): 1.79 µM
- Ksv (α-glucosidase [4]; 20 °C): 53500 L/mol
- Ksv (α-glucosidase [4]; 31 °C): 78700 L/mol
- Ksv (α-glucosidase [4]; 37 °C): 58100 L/mol
- Kq (α-glucosidase [4]; 20 °C): 5.35e+12 M⁻¹ s⁻¹
- Kq (α-glucosidase [4]; 31 °C): 7.87e+12 M⁻¹ s⁻¹
- Kq (α-glucosidase [4]; 37 °C): 5.81e+12 M⁻¹ s⁻¹
- ∆S (α-glucosidase [4]): 148.2 J/mol/K
- change of α-glucosidase CD spectrum (negative peaks at 209 and 222 nm) (α-glucosidase [5]): loss of the α-helix structure
